Assay [1] relates to Influenza A virus. In words: Antiviral activity against amantadine-resistant Influenza A virus (A/WSN/1933) infected in MDCK cells preincubated for 30 mins followed by viral infection measured after 72 hrs by CCK-8 assay. Particulars: A/WSN/1933(H1N1). The assay is classed as functional, organism-based. In general terms: Tetrazolium assays rely on reduction of a dye to a coloured formazan, in cell work by metabolically active cells.

For assay [2], the system named is Influenza A virus. As to the kind of experiment: Antiviral activity against M2 ion channel S31N mutant expressing amantadine-resistant Influenza A virus infected in MDCK cells preincubated for 30 mins followed by viral infection measured after 72 hrs by CCK-8 assay. The format is functional, organism-based.

The source made the active and inactive calls. The calls are words filed in the database; no cut-off is given here.

Turning to `C[C@@H](N)[C@H]1C[C@H]2CC[C@]1(C)C2(C)C.Cl`, the outcome with Influenza A virus [1] and in the assay with Influenza A virus [2] was inactive.
For the molecule `NC1CC2CCC1C2` (stereo not drawn), the outcome in the assay with Influenza A virus [1] and in the assay on Influenza A virus [2] was inactive.
For `CC1(C)[C@H]2CC[C@](C)(C2)[C@H]1CN`, the result in the assay with Influenza A virus [1] and in the assay with Influenza A virus [2] was inactive.
For `C[C@H]1[C@H](CN)C[C@@H]2C[C@H]1C2(C)C`, the result in the assay on Influenza A virus [1] and in the assay on Influenza A virus [2] was inactive.
On to `CC1(C)[C@@H]2CC[C@@]1(C)[C@@H](CN)C2`, for which the result with Influenza A virus [1] and in the assay with Influenza A virus [2] was inactive.
With `N[C@H]1C[C@@H]2CC[C@H]1C2`, the result in the assay with Influenza A virus [1] and with Influenza A virus [2] was inactive.
As for `C[C@H]1[C@H](N)C[C@@H]2C[C@H]1C2(C)C`, the outcome with Influenza A virus [1] and in the assay with Influenza A virus [2] was inactive.
For `C[C@H]1[C@H]([C@H](C)N)C[C@@H]2C[C@H]1C2(C)C`, the outcome in the assay on Influenza A virus [1] and with Influenza A virus [2] was inactive.
Take `CC1(C)[C@@H]2CC[C@@]1(C)[C@@H](N)C2` (relative stereo): the result in the assay on Influenza A virus [1] and in the assay on Influenza A virus [2] was inactive.

The values are drawn from ChEMBL document CHEMBL3734655, “Identification of camphor derivatives as novel M2 ion channel inhibitors of influenza A virus” (Medchemcomm, 2015).
